According to article PMC8877233, “The Hydrophobicity and Antifungal Potentiation of Burkholdine Analogues” (Molecules, 2022):
Starred links: 1 amine or outer side, 2 acyl side, 3 side chain; linkers in the order of their positions; H or OH if unused. Positions of bridges follow the written chain, without caps; N, C: chain ends. Non-standard residues stand in square brackets, D forms with d. Residues, ends and D or L forms follow the SMILES beside them. X3 = CCCCCCCCCCC(=O)N[C@H](C(=O)NC[C@@H](CC(=O)[*:1])N[*:2])[C@@H](C)O; X2 = CCCCCCCCNC(=O)[C@H](O)[C@@H](O)C(=O)NC[C@@H](CC(=O)[*:1])N[*:2]

How the values were obtained:
S. cerevisiae [1] = experiment: Potentiation assay with G418; type: cell-based; details: for potentiation of the effect of G418: S. cerevisiae, peptide dose 100 µg/mL, result in words
Experimental: (§1) Two antibiotics with different mechanisms of action can have a synergistic effect, together exerting an antifungal activity higher than the sum of their individual activities. Accordingly, the potentiation of the antifungal effect of G418 (Geneticin), an aminoglycosyl-type antibiotic that inhibits protein biosynthesis by binding to the ribosome 70S and 80S subunits, and zeocin (phleomucin D1), a glycopeptide antibiotic and DNA intercalator, by cyclic peptides (3a)–(8) was evaluated. Although the relatively high PSA and negative logP values of Bk analogues (3a)–(8) are not conductive to cell penetration, there was the possibility that their fatty side chains have an affinity for cell surfaces. […] The mechanism of action is not clear, but it is possible that the interaction of the cyclic peptides (3a)–(8) with the cell wall increases its susceptibility to penetration by G418.
(§2) The prepared test bacteria (50 µL) were placed in well A1–A12 of a 96-well plate. G418 (200 mg/mL, 108321-42-2, Nacalai tesque, Japan) in H2O, then medium […] was added to A1, pipetting was performed, and 50 µL was extracted from A1 and placed in A2. This operation was repeated until A11, and 50 µL extracted from A11 was discarded. After 30 min, Bk analogue (200 μg/mL) in medium […] was added to each solution (final concentration = 100 μg/mL). The well plate was closed and incubated at 30 °C. After 24 h, the MIC and potentiation values were evaluated.

[2] = system: S. cerevisiae (ATCC204504); type: cell-based; details: ATCC204504, 24 h
Experimental: Bacto yeast extract (0.63 g, 70161, Fluka, Barcelona, Spain), peptone (1.00 g, 26421, Mikuni, Japan), and glucose (1.00 g, 16806-25, Nacalai tesque, Japan) were added to H2O (50 mL) at room temperature and the mixture was heated to 60 °C. After 30 min, the mixture was sterilized by heating in an autoclave at 121 °C for 20 min.
DMSO (8 µL, 13406-55, Nacalai tesque, Japan) was added to YPD medium (750 µL). The test fungus culture solution (3 µL) was added to this solution (1.5 mL).
The inhibitor (each 1.0 mg; 3a–h, 4a–b, 5a–b, 6a–b, 7, 8) was dissolved in DMSO (40 µL).
The prepared test bacteria (50 µL) were placed in A1–A12 of a 96-well plate. Bk analogue (50 µL) was added to A1, pipetting was performed, and then 50 µL was extracted from A1 and placed in A2. This operation was repeated until A11, and 50 µL extracted from A11 was discarded. The well plate was closed and incubated at 30 °C. After 24 h, the MIC values were evaluated.

[3] = RP-HPLC retention time as measure of hydrophilicity/hydrophobicity; type: physicochemical; details: chromatographic, Cosmosil 5C18-AR-II 4.6 x 150 mm, linear gradient 30–70% MeCN/H2O (0.1% TFA) for 30 min, 1 mL/min, UV 220 nm
Experimental: […] In all cases, the retention times of the (S)-Dab-containing peptides were shorter than those of the (R)-Dab-containing peptides, which were similar to those bearing L-Orn. The retention times of the cyclic peptides were shorter for Tat > D-Ser > L-Thr > L-Ser, while peptides bearing the undecanoic acid moiety eluted […] than those bearing the decanoic acid by about 2 min.

S. cerevisiae [4] = experiment: Potentiation assay with zeocin; type: cell-based; details: assays attempted three times
Experimental: as §1
as §2, with “After 24 h, the MIC and potentiation values were evaluated.” left out

Candida albicans = details: cited from earlier work
Description: The burkholdines (Bks) are a family of 25-membered cyclic lipopeptides composed of eight amino acids arranged in a lactam ring bearing a lipophilic side chain, which were first isolated from the proteobacteria Burkholderia ambifaria 2.2N by Schmidt in 2010 [1, 2, 3, 4]. […] The mechanism of this activity is thought to entail the inhibition of fungal β-glucan synthase, as is the case for the candine anti ...

Molecule	MIC [2] [µg/mL]	tR [3] [min]	potentiation of the effect of G418 (S. cerevisiae [1])	MIC90 (Candida albicans) [µg/mL]	other results
CN[C@@H]1[C@@H](O)[C@@H](O[C@@H]2[C@@H](O)[C@H](O[C@H]3O[C@H]([C@@H](C)O)[C@@H](O)[C@H](O)[C@H]3N)[C@@H](N)C[C@H]2N)OC[C@]1(C)O [Compound G418, G418, reference compound]	–	–	–	–	MIC (S. cerevisiae [1]; Saccharomyces cerevisiae, 24 h, read-out: MIC of G418 alone): 25000 µg/mL
Cc1c(N)nc([C@H](CC(N)=O)NC[C@H](N)C(N)=O)nc1C(=O)N[C@H](C(=O)N[C@H](C)[C@@H](O)[C@H](C)C(=O)N[C@H](C(=O)NCCC1=N[C@@H](c2nc(C(=O)NCCCCN=C(N)N)cs2)CS1)[C@@H](C)O)[C@@H](O[C@@H]1O[C@@H](CO)[C@@H](O)[C@H](O)[C@@H]1O[C@H]1O[C@H](CO)[C@@H](O)[C@H](OC(N)=O)[C@@H]1O)c1cnc[nH]1 [zeocin]	–	–	–	–	MIC of zeocin alone (S. cerevisiae [4]): 3130 µg/mL
caspofungin	–	–	–	0.25	–
micafungin	–	–	–	0.015	–

Now from value to molecule, other results behind:

MIC [2] [µg/mL]	tR [3] [min]	Molecule	potentiation of the effect of G418 (S. cerevisiae [1])	MIC90 (Candida albicans) [µg/mL]	other results
>200	10.7	CCCCCCCCCCC(=O)N[C@H](C(=O)NC[C@H]1CC(=O)N[C@H](CO)C(=O)N[C@H](Cc2ccc(O)cc2)C(=O)N[C@H](CC(N)=O)C(=O)NCC(=O)N[C@@H](CC(N)=O)C(=O)N[C@@H](CO)C(=O)N[C@@H](CC(N)=O)C(=O)N1)[C@@H](C)O [Compound 4b, Cyclo-[Undecanoic Acid-Thr-(R)-7-D-Ser-D-Tyr-D-Asn-Gly-Asn-Ser-Asn]] ([dS][dY][dN]GNSN; linker N-C via X3)	weak potentiating effects	–	–
>200	6.4	CCCCCCCCNC(=O)[C@H](O)[C@@H](O)C(=O)NC[C@H]1CC(=O)N[C@H](CO)C(=O)N[C@H](Cc2ccc(O)cc2)C(=O)N[C@H](CC(N)=O)C(=O)NCC(=O)N[C@@H](CC(N)=O)C(=O)N[C@@H](CO)C(=O)N[C@@H](CC(N)=O)C(=O)N1 [Compound 5b, Cyclo-[(2R,3R)-2,3-dihydroxy-4-(octylamino)-4-oxobutanoic Acid-(R)-7-D-Ser-D-Tyr-D-Asn-Gly-Asn-Ser-Asn]] ([dS][dY][dN]GNSN; linker N-C via X2)	weak potentiating effects	–	–
